Experimental findings from ChEMBL document CHEMBL1129135, “Synthesis and antitumor evaluation of paclitaxel phosphonooxymethyl ethers: a novel class of water soluble paclitaxel pro-drugs” (1996) are described below.

What all share (type): functional
What all share (details): route intraperitoneal

Assay [1] concerns Mus musculus. Briefly: Compound was tested in vivo for its efficacy against the M109 murine tumor model at the dose of 44 mg/kg/injection after ip administration (Data reported with reference to Paclitaxel).
In assay [2] the test system is Mus musculus. Briefly: Compound was tested in vivo for its efficacy against the M109 murine tumor model at the dose of 64 mg/kg/injection after ip administration.
For assay [3], the system named is Mus musculus. The assay is described as follows: Compound was tested in vivo for its efficacy against the M109 murine tumor model at the dose of 200 mg/kg/inj after ip administration.
Assay [4] deals with Mus musculus. The assay is described as follows: Compound was tested in vivo for its efficacy against the M109 murine tumor model at the dose of 60 mg/kg/injection after ip administration (Data reported with reference to Paclitaxel).

By T/C is commonly meant the result in the treated group divided by that in the control group, in per cent. On to `CCOC(=O)O[C@@H](C(=O)O[C@H]1C[C@@]2(O)[C@@H](OC(=O)c3ccccc3)[C@@H]3[C@]4(OC(C)=O)CO[C@@H]4C[C@H](OCOP(=O)(O)O)[C@@]3(C)C(=O)[C@H](OC(C)=O)C(=C1C)C2(C)C)[C@@H](NC(=O)c1ccccc1)c1ccccc1`, for which the T/C in assay [1] was determined as 175%; in assay [2] it was 188%.

Regarding `CC(=O)O[C@H]1C(=O)[C@@]2(C)[C@H]([C@H](OC(=O)c3ccccc3)[C@]3(O)C[C@H](OC(=O)[C@H](OCOP(=O)(O)O)[C@@H](NC(=O)c4ccccc4)c4ccccc4)C(C)=C1C3(C)C)[C@]1(OC(C)=O)CO[C@@H]1C[C@@H]2O`, the T/C was found to be 144% in assay [3] and 237% in assay [4].
